pIC50: −log10 of the molar value.
How the values were obtained:
NCI-H3255 = experiment: cells; assay type: cell-based; details: Homo sapiens, NCI-H3255, 72 h
in vivo = details: male, rat, po
SNU-761 = experiment: cells; assay type: cell-based; details: SNU-761, 72 h
MDA-MB-415 = experiment: cells; assay type: cell-based; details: Homo sapiens, MDA-MB-415, 72 h
NCI-H2228 = experiment: cells; assay type: cell-based; details: Homo sapiens, NCI-H2228, 72 h
KYSE150 = experiment: cells; assay type: cell-based; details: Homo sapiens, KYSE-150; KYSE150, 72 h
NCI-H2030 = experiment: cells; assay type: cell-based; details: Homo sapiens, NCI-H2030, 72 h
OE33 = experiment: cells; assay type: cell-based; details: Homo sapiens, OE33, 72 h
COR-L105 [1] = experiment: cells; assay type: cell-based; details: Homo sapiens, COR-L105, 72 h
VCAP = experiment: cells; assay type: cell-based; details: Homo sapiens, 72 h
TE-10 = experiment: cells; assay type: cell-based; details: Homo sapiens, TE-10, 72 h
NCI-H3122 = experiment: cells; assay type: cell-based; details: Homo sapiens, NCI-H3122, 72 h
COR-L105 [2] = experiment: cells; assay type: cell-based; details: Homo sapiens, COR-L105, 72 h; remark: listed apart in the source
TE-8 = experiment: cells; assay type: cell-based; details: Homo sapiens, TE-8, 72 h
KELLY = experiment: cells; assay type: cell-based; details: 72 h
SK-N-SH = experiment: cells; assay type: cell-based; details: Homo sapiens, 72 h
Maximum tolerated dosage = assay type: in vivo; details: mice, once daily
HCC-827 = experiment: cells; assay type: cell-based; details: Homo sapiens, HCC827; HCC-827, 72 h
UACC-62 = experiment: cells; assay type: cell-based; details: Homo sapiens, UACC-62, 72 h
NCI-H441 = experiment: cells; assay type: cell-based; details: Homo sapiens, NCI-H441, 72 h

CN(C)C(=O)c1cc2cnc(Nc3ccc(N4CCNCC4)cn3)nc2n1C1CCCC1 [Ribociclib, 7-cyclopentyl-2-(5-piperazin-1-yl-pyridin-2-ylamino)-7H-pyrrolo[2,3-d]pyrimidine-6-carboxylic acid dimethylamide]
pIC50 (NCI-H3255): < 5.00 | Cmax (in vivo; 10 mg/kg): 110 ng/mL | Cmax (in vivo; 75 mg/kg): 1740 ng/mL | Cmax (in vivo; 150 mg/kg): 1680 ng/mL | pIC50 (SNU-761): < 5.00 | pIC50 (MDA-MB-415): 6.01 | pIC50 (NCI-H2228): < 5.00 | pIC50 (KYSE150): 6.26 | pIC50 (NCI-H2030): < 5.00 | pIC50 (OE33): < 5.00 | pIC50 (COR-L105 [1]): < 5.00 | pIC50 (VCAP): < 5.00 | pIC50 (TE-10): < 5.00 | pIC50 (NCI-H3122): 6.29 | pIC50 (COR-L105 [2]): 5.72 | pIC50 (TE-8): < 5.00 | pIC50 (KELLY): 6.57 | pIC50 (SK-N-SH): 6.57 | maximum tolerated dosage (Maximum tolerated dosage): 250 mg/kg | pIC50 (HCC-827): 5.21 | pIC50 (UACC-62): < 5.00 | pIC50 (NCI-H441): < 5.00

Source: paper PMC6219668 (Oncotarget, 2018)
